Entries after “also recorded” stand apart in the source; their conditions may differ. Where two headings read alike, the source gives them in different places.
Tests used:
HFF cells = assay: Cellular viability by CellTiter-Glo in the BK virus assays
[1] = as above; settings: human
BK Virus [2] = assay: BK virus viral neutralization assay (pre-incubation of SnPP with BK virus for 1 hour prior to infection), qPCR; type: cell-based, strain Gardner; settings: for EC50 / EC90 / SI50 / SI90: experiment 21-bk2-004; for EC50 / EC90: Secondary (Neutralization, pre-incubation of virus), BK Virus Gardner in HFF, qPCR (DNA); for SI50 / SI90: Secondary (Neutralization); for SI50: CC50/EC50; for SI90: CC50/EC90
BK Virus [3] = assay: BK virus standard qPCR-based antiviral assay (treatment with SnPP at the time of infection; primary and secondary); type: cell-based, strain Gardner; settings: for SI50: CC50/EC50; for SI90: CC50/EC90; for Activity: BK
[4] = system: non-enveloped polio virus; settings: in vitro; Neris et al. 2018; cited from earlier work
enveloped viruses = settings: in vitro; Neris et al. 2018; cited from earlier work
Adenovirus (Adv) = assay: AdV primary antiviral assay; type: cell-based
JC virus [5] = assay: JC virus neutralization assay (pre-incubation of virus with RBT-9) in COS7 cells; type: cell-based, 1-4 strain
Description: The present inventors used assays to determine the antiviral activity against various pathogens, including particularly the BK virus. Two conditions were investigated: 1) standard qPCR-based antiviral assay—treatment with SnPP at the time of infection and 2) viral neutralization—pre-incubation of SnPP with BK virus for 1 hour prior to infection. SnPP was tested at concentrations up to 100 μM. Human foreskin fibroblast (HFF) cells were used as the host cell. Viral activity was assessed by real time qPCR and cellular viability was determined by CellTiter-Glo.
(§1) Primary evaluation of compounds against JC virus were also performed by methods similar to those for BK virus primary assays but were done in COS7 cells and utilized the 1-4 strain of JCV in COS7 cells. Viral DNA was quantified using primers 5′-[…]-3′ and 5′-[…]-3′ and probe 5′-6-FAM-[…]-TAMRA-3 together with the plasmid pMP508 to provide a standard curve for absolute quantification. Secondary assays against JCV were also performed in COS7 cells by methods similar to those for BK virus to identify compounds that inhibited adsorption or penetration of the virus. • EC50—compound concentration that reduces viral replication by 50% • EC90—compound concentration that reduces viral replication by 90% • CC50—compound concentration that reduces cell viability by 50% • SI50—CC50/EC50 • SI90—CC50/EC90

CMV = CMV primary antiviral assay; type: cell-based
[6] = in vivo
HPV (HPV11) = assay: HPV primary antiviral assay; type: cell-based, Human Papilloma Virus
[7] = system: acute kidney injury (AKI); settings: animals; given prior to insult; cited from earlier work
JC virus [8] = assay: JC virus qPCR antiviral assay in COS7 cells (primary/standard); type: cell-based, 1-4 strain; settings: for Activity / EC50 / EC90 / SI50: JC; for Activity: Non-enveloped; for SI50: CC50/EC50
Description: as §1

[9] = experiment 21-bk2-003, Primary (Standard), HFF, CellTiter-Glo
[10] = experiment 21-bk2-004, Secondary (Neutralization), HFF, CellTiter-Glo
[11] = experiment 21-bk2-001, Secondary
[12] = experiment 21-bk2-003, Primary (Standard)

Structure (SMILES): Nc1ccn(C[C@@H](CO)OCP(=O)(O)O)c(=O)n1 [Cidofovir, reference compound]
- CC50 (HFF cells; [9]): > 100 µM
- CC50 (HFF cells; [10]): > 100 µM
- CC50 [1]: > 100 µM
- CC50 ([1]; CC50, experiment 20-bk-007, Primary, HFF, CellTiter-Glo): > 150 µM
- EC50 (BK Virus [2]; Betapolyomavirus hominis): > 100 µM
- EC90 (BK Virus [2]; Betapolyomavirus hominis): > 100 µM
- SI50 (BK Virus [2]): 1
- SI90 (BK Virus [2]): 1
- EC90 (BK Virus [3]; Betapolyomavirus hominis, experiment 20-bk-007, Primary, BK Virus Gardner in HFF, qPCR (DNA)): 117 µM
- EC50 (BK Virus [3]; Betapolyomavirus hominis, experiment 20-bk-007, Primary, BK Virus Gardner in HFF, qPCR (DNA), read-out: EC50): 6.28 µM
- EC90 (BK Virus [3]; Betapolyomavirus hominis, experiment 21-bk2-001, Secondary, BK Virus Gardner in HFF, qPCR (DNA)): 10.7 µM
- EC50 (BK Virus [3]; Betapolyomavirus hominis, experiment 21-bk2-001, Secondary, BK Virus Gardner in HFF, qPCR (DNA), read-out: EC50): 0.72 µM
- EC90 (BK Virus [3]; Betapolyomavirus hominis, experiment 21-bk2-003, Primary (Standard), BK Virus Gardner in HFF, qPCR (DNA)): 17.9 µM
- EC50 (BK Virus [3]; Betapolyomavirus hominis, experiment 21-bk2-003, Primary (Standard), BK Virus Gardner in HFF, qPCR (DNA), read-out: EC50): 0.13 µM
- SI50 (BK Virus [3]; experiment 20-bk-007, Primary): >24
- SI90 (BK Virus [3]; experiment 20-bk-007, Primary): >1
- SI50 (BK Virus [3]; [11]): >139
- SI90 (BK Virus [3]; [11]): >9
- SI50 (BK Virus [3]; [12]): >769
- SI90 (BK Virus [3]; [12]): >6

Structure (SMILES): C=Cc1c(C)c2cc3[nH]c(cc4nc(cc5nc(cc1[nH]2)C(C)=C5CCC(=O)[O-])C(CCC(=O)[O-])=C4C)c(C)c3C=C.[Co+2] [Cobalt protoporphyrin, Co-protoporphyrin IX, reference compound]
- activity against polio virus [4]: no activity
- antiviral activity against enveloped viruses (enveloped viruses): broad antiviral activity

Structure (SMILES): C=CC1=C(C)c2cc3[n-]c(cc4[n-]c(cc5nc(cc1n2)C(C)=C5C=C)c(C)c4CCC(=O)O)c(CCC(=O)O)c3C.[Sn+2] [SnPP, Stannous protoporphyrin]
- inactivating activity against Adenovirus (in words) (Adenovirus (Adv)): not found; also recorded: Minimal to no activity
- Activity (Adenovirus (Adv); AdV, Non-enveloped, Primary): NONE
- EC50 (Adenovirus (Adv); AdV, Primary): > 30 µM
- EC90 (Adenovirus (Adv); AdV, Primary): > 30 µM
- SI50 (Adenovirus (Adv); AdV, Primary, CC50/EC50): <1
- Activity (JC virus [5]; Non-enveloped, Secondary (Neutralization, pre-incubation of virus with RBT-9)): MINIMAL
- EC50 (JC virus [5]; Secondary (Neutralization)): 18.9 µM
- EC90 (JC virus [5]; Secondary (Neutralization)): > 20 µM
- SI50 (JC virus [5]; Secondary (Neutralization), CC50/EC50): 4
- EC50 (CMV): > 6 µM
- EC90 (CMV): > 6 µM
- SI50 (CMV; CC50/EC50): <3
- Activity (CMV; Enveloped): NONE
- concentration not adversely affecting host cell viability, times higher than effective concentration (HFF cells; CC50 average versus effective concentration, BK virus assays): 16.5 times
- CC50 (HFF cells; experiment 20-bk-007, Primary, HFF, CellTiter-Glo): 62.3 µM
- CC50 (HFF cells; experiment 21-bk2-001, Secondary, HFF, CellTiter-Glo): 95.8 µM
- CC50 (HFF cells; [9]): 82.7 µM
- CC50 (HFF cells; [10]): 82.7 µM
- CC50 (HFF cells; read-out: 50% cytotoxic concentration (CC50), average, averaged in the in vitro studies, host cell viability): 89.2 µM
- activity against polio virus [4]: no activity
- tolerability [6]: well tolerated
- inactivating activity against HPV (in words) (HPV (HPV11)): not found; also recorded: Minimal to no activity
- Activity (HPV (HPV11); HPV (HPV11), Non-enveloped, Primary): MINIMAL
- EC50 (HPV (HPV11); HPV (HPV11), Primary): 23.4 µM
- EC90 (HPV (HPV11); HPV (HPV11), Primary): > 30 µM
- SI50 (HPV (HPV11); HPV (HPV11), Primary, CC50/EC50): 5
- Activity (BK Virus [2]; BK, Secondary (Neutralization) (21-bk2-004)): MODERATE
- SI50 (BK Virus [2]): 15
- SI90 (BK Virus [2]): 3
- EC50 (BK Virus [2]): 5.4 µM
- EC90 (BK Virus [2]): 32.9 µM
- protection against acute kidney injury (AKI) [7]: protective
- inactivating activity against JC virus (in words) (JC virus [8]): moderate inactivating activity
- Activity (JC virus [8]; Primary): MODERATE
- Activity (JC virus [8]; Primary (Standard)): MODERATE
- EC50 (JC virus [8]; Primary): 5.38 µM
- EC90 (JC virus [8]; Primary): > 30 µM
- EC50 (JC virus [8]; Primary (Standard)): 9.93 µM
- EC90 (JC virus [8]; Primary (Standard)): 63.1 µM
- SI50 (JC virus [8]; Primary (Standard)): 7
- SI50 (JC virus [8]; Primary): 19
- Activity (BK Virus [3]; Primary (20-bk-007)): MODERATE
- Activity (BK Virus [3]; Primary (Standard) (21-bk2-003)): MODERATE
- Activity (BK Virus [3]; Secondary (21-bk2-001)): HIGH
- EC50 (BK Virus [3]; averaged in 2 independently run standard qPCR assays, BK virus, read-out: 50% effective concentration (EC50), average): 5.5 µM
- antiviral / inactivating activity against BK virus (in words) (BK Virus [3]; both treatment conditions): broad inactivating activity; also recorded: moderate antiviral activity; also recorded: most significant activity
- EC90 (BK Virus [3]; experiment 20-bk-007, Primary, BK Virus Gardner in HFF, qPCR (DNA)): 26.6 µM
- EC50 (BK Virus [3]; experiment 20-bk-007, Primary, BK Virus Gardner in HFF, qPCR (DNA), read-out: EC50): 8.08 µM
- SI50 (BK Virus [3]; experiment 20-bk-007, Primary): 8
- SI90 (BK Virus [3]; experiment 20-bk-007, Primary): 2
- EC90 (BK Virus [3]; experiment 21-bk2-001, Secondary, BK Virus Gardner in HFF, qPCR (DNA)): 30.1 µM
- EC50 (BK Virus [3]; experiment 21-bk2-001, Secondary, BK Virus Gardner in HFF, qPCR (DNA), read-out: EC50): 2.4 µM
- SI50 (BK Virus [3]; [11]): 40
- SI90 (BK Virus [3]; [11]): 3
- EC90 (BK Virus [3]; experiment 21-bk2-003, Primary (Standard), BK Virus Gardner in HFF, qPCR (DNA)): 81.8 µM
- EC50 (BK Virus [3]; experiment 21-bk2-003, Primary (Standard), BK Virus Gardner in HFF, qPCR (DNA), read-out: EC50): 8.6 µM
- SI50 (BK Virus [3]; [12]): 10
- SI90 (BK Virus [3]; [12]): 1
- antiviral activity against enveloped viruses (enveloped viruses): broad antiviral activity

— patent US12042501B2, “Metal protoporphyrin for treatment of BK virus” (Renibus Therapeutics, Inc., priority 2021, dated 2024)
